Target: T1, S1P5 (Homo sapiens, UniProt Q9H228)
T1 construct: expressed in transfected cells; host or cells: CHO cells (membranes)
Assay: [35S]-GTPγS functional binding assay on CHO-S1P5 membranes
Assay type: biochemical
Conditions: membranes of CHO cells expressing recombinant S1P5 receptors; measure of S1P5 agonism
Experimental: CHO cells expressing recombinant S1P5 receptors were cultured in 500 cm^2 culture trays and, once confluent, rinsed and detached with cell-lifting buffer (10 mM HEPES, 154 mM NaCl, 6.85 mM EDTA, pH 7.4). Cells were then pelleted by centrifugation, resuspended, and homogenized in membrane preparation buffer (10 mM HEPES and 10 mM EDTA, pH 7.4) using a Polytron PT 1200E homogenizer (Kinematica, Luzern, Switzerland). Cellular proteins were pelleted by centrifugation at 48,000×g at 4° C. for 30 minutes. The resulting supernatant was discarded, and the pellet was re-suspended again in membrane preparation buffer, homogenized for a second time, and then centrifuged again as described above. The final cellular protein pellet was suspended in ice cold resuspension buffer (10 mM HEPES and 0.1 mM EDTA, pH 7.4), divided into aliquots, and stored at −80° C. until use.
Functional binding assays for [^35S]-GTPγS were performed in 96-well non-binding surface plates with a final volume of 200 μL. The test compounds were serially diluted in DMSO and added to assay plates using a Tecan D300E digital printer with a total volume of 0.4 μL. The control sphingosine-1-phosphate (S1P) was prepared separately by preparing a 400 μM stock solution from a 100 nmol pellet of SIP in 10 mM Na2CO3 with 2% s-cyclodextrin. The serial dilution of S1P was done using complete assay buffer (20 mM HEPES, 10 mM MgCl2, 100 mM NaCl, 1 mM EDTA, 0.1% fatty acid free bovine serum albumin (BSA), and 30 μg/mL saponin, pH 7.4) and transferred to wells already containing 0.4 μL DMSO. All the wells were then loaded to a total volume of 40 μL of complete assay buffer, except the non-specific binding (NSB) wells. For NSB wells, 40 μL/well of 50 μM GTPγS (Sigma Aldrich, cat #G8634, St. Louis, MO) was added to wells containing 0.4 μL of DMSO. The assay was started by the addition of 120 μL/well of CHO-S1P receptor membrane solution containing 40 μg/mL of membrane protein, 16.67 μM guanosine diphosphate (GDP; Sigma Aldrich, cat #G7127, St. Louis, MO), and 2.5 mg/mL of WGA PVT SPA beads in complete buffer. Assay plates were then sealed and incubated at room temperature with gentle agitation for 30 minutes. Next, 40 μL/well of 1 nM of [^35S]-GTPγS (PerkinElmer, cat #NEG030X250UC, Waltham, MA) in basic assay buffer (20 mM HEPES, 10 mM MgCl2, 100 mM NaCl, and 1 mM EDTA, pH 7.4) was added to the assay plates to yield a final concentration of […] and the plates were further incubated for 40 minutes at room temperature with gentle agitation. The assay was terminated by centrifugation of the plates at 1000 rpm for 3 minutes using an Eppendorf 5810R centrifuge (Eppendorf, Hamburg, Germany) and G protein bound radioactivity was quantitated using a MicroBeta2 microplate scintillation counter (PerkinElmer, Waltham, MA). As G protein bound radioactivity directly correlates to receptor activation and coupling to the G protein, this assay is a measure of S1P5 agonism.

T1 sequence (Q9H228 whole entry, species assumed): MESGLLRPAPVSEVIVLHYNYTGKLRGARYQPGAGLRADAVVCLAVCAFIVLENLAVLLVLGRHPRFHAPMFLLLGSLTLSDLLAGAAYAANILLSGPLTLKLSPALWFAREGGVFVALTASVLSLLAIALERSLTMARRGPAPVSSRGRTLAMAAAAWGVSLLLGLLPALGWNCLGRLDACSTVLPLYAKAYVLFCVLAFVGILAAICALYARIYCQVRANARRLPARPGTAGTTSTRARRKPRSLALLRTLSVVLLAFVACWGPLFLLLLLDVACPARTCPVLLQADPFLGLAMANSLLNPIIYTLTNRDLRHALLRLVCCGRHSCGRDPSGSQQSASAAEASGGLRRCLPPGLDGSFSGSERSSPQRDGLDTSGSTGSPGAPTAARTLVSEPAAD

SMILES	EC50 [nM]
O=C(O)C1CC2(C1)CN(C1CCc3cc(CCc4c(Cl)cccc4Cl)ccc31)C2 (stereo not shown) [Compound 29, 2-(5-(2,6-dichlorophenethyl)-2,3-dihydro-1H-inden-1-yl)-2-azaspiro[3.3]heptane-6-carboxylic acid]	10 to 100
CC(C)c1ccc(-c2ccc3c(c2)CCC3N2CCC(C(=O)O)CC2)cc1Cl (stereo not shown) [Compound 33, 1-(5-(3-chloro-4-isopropylphenyl)-2,3-dihydro-1H-inden-1-yl)piperidine-4-carboxylic acid]	≤ 10
O=C(O)C1CCCN(C2CCc3cc(-c4ccc(C5CC5)c(Cl)c4)ccc32)C1 (stereo not shown) [Compound 38, 1-(5-(3-chloro-4-cyclopropylphenyl)-2,3-dihydro-1H-inden-1-yl)piperidine-3-carboxylic acid]	10 to 100
O=C(O)C1CC2(C1)CN(C1CCc3cc(-c4ccc(C5CC5)c(Cl)c4)ccc31)C2 (stereo not shown) [Compound 39, 2-(5-(3-chloro-4-cyclopropylphenyl)-2,3-dihydro-1H-inden-1-yl)-2-azaspiro[3.3]heptane-6-carboxylic acid]	10 to 100
